The values that follow come from article PMC3130785, “Small Compound 6-O-Angeloylplenolin Induces Mitotic Arrest and Exhibits Therapeutic Potentials in Multiple Myeloma” (PLoS ONE, 2011).

The subject of series [1] is U266, RPMI 8226, MM.1S, and MM.1R cells. Nature of the series: MTT assay, MM cell lines together. It counts as cell-based. As to conditions: Homo sapiens, range over the four MM cell lines. Here is the method:
(§1) U266, RPMI 8226 cells (1×10^4), primary CD138+ cells, PBMCs (5×10^4), and BMSCs (1×10^4) were cultured in 96-well dishes and incubated without or with 6-OAP at indicated concentration for 48 h. MM.1S and MM.1R cells (2×10^4) were seeded into 96-well dishes and pre-cultured for 24 h, then treated with 6-OAP for 48 h. Cell proliferation was determined by MTT assay. Cell viability was estimated by trypan blue dye exclusion.

For a further series, the system named is U266. Nature of the series: MTT cell proliferation assay. As to conditions: Homo sapiens, U-266, 48 h. It is filed as cell-based. Here is the method:
as §1
Background: Tetrazolium assays rely on reduction of a dye to a coloured formazan, in cell work by metabolically active cells.

In another series the test system is RPMI 8226. Nature of the series: MTT cell proliferation assay. It is filed as cell-based. Conditions: Homo sapiens, 48 h. Here is the method:
as §1

The subject of a further series is MM.1R. Nature of the series: MTT cell proliferation assay. As to conditions: Homo sapiens, 48 h. It is filed as cell-based. On the procedure:
as §1

A further series concerns MM.1S. Nature of the series: MTT cell proliferation assay. It counts as cell-based. Conditions: Homo sapiens, MM1.S, 48 h. On the procedure:
as §1

A further series deals with Bacillus subtilis. Further details: method as in PMID 9461679, PMID 8657743, PMID 12521264. Conditions: cited from earlier work.
Another series concerns MM.1S cells. Nature of the series: MTT assay, 6-OAP combined with Dox, Dex or BOR. It counts as cell-based, human. As to conditions: 48 h, 6-OAP 5 µM, in particular Dox and BOR. Here is the method: as §1
Figure 4 6-OAP enhances cytotoxicity of Dox, Dex and BOR to MM cells. (A through C) MM.1S cells were treated for 48 h with Dox (A), Dex (B) or BOR (C) in the presence or absence of 6-OAP at 5 µM. MTT assay was used to test the proliferation of MM.1S cells. (D) MM.1R cells were treated for 48 h with Dex in the presence or absence of 6-OAP at 7.5 µM. MTT assay was used to test the proliferation of MM.1R cells. *p<.001,** p<.05. (E) MM.1S cells were cultured with control media (con), 6-OAP (O, 5 µM), BOR (B, 3 nM), or 6-OAP (5 µM) plus BOR (3 nM) (OB) for indicated time points. Cells were then lysed and subjected to Western blotting using indicated antibodies. CF, cleavage fragment.

In series [2] the test system is U266, RPMI 8226, MM.1S, and MM.1R cells. Nature of the series: Trypan blue exclusion assay. It counts as cell-based, human. Conditions: 6-OAP 5 to 7.5 µM. Here is the method: as §1
The next series relates to Mad2 bound Cdc20. Nature of the series: Immunoprecipitation and Western blotting. It counts as cell-based, human. As to conditions: U266 and MM.1S cells; 24 h. Here is the method:
(§2) Cell pellets were lysed in RIPA buffer containing 50 mM Tris pH 8.0, 150 mM NaCl, 0.1% SDS, 0.5% deoxycholate, 1% NP-40, 1 mM DTT, 1 mM NaF, 1 mM sodium vanadate, and protease inhibitors cocktail (Sigma). For immunoprecipitations, cells were lysed on ice for 15 minutes in RIPA buffer. Lysates were centrifuged. The supernatant was incubated with indicated antibodies overnight, after which protein A/G Plus beads (Santa Cruz Biotechnology) were added and incubated for 3 h. The beads were washed 4 times in RIPA buffer. Then the beads were resuspended in 1× sample buffer and boiled for 3 min. Protein extracts were quantitated and loaded on 8% to 12% sodium dodecyl sulfate polyacrylamide gel, electrophoresed, and transferred to a nitrocellulose membrane (Whatman). The membrane was incubated with primary antibody, washed, and incubated with horseradish peroxidase (HRP)–conjugated secondary antibody (Pierce). Detection was performed by using a chemiluminescent western detection kit (Cell Signaling). […]
(§3) Figure 3 6-OAP accumulates cyclin B1 which is required for mitotic arrest. […] After co-incubation with 6-OAP for 18 h, the cells were then harvested and detected by Leica DMI 400B microscope (D), or analyzed by flow cytometry for the cell cycle distribution (E). To evaluate cell growth, the cells were treated with 6-OAP for indicated time points and analyzed by trypan blue exclusion assay (F). […]
(In general: Immunoblotting shows a protein as a band on a membrane.)

The test system of series [3] is ubiquitinated cyclin B1 (Ub-cyclin B1). In words: Immunoprecipitation and Western blotting. It is filed as cell-based, human. As to conditions: U266 and MM.1S; 24 h. Here is the method:
as §2, §3

The IC50 is the midpoint of a concentration-inhibition curve. Lower therefore signals inhibition by little substance. On to `CC=C(C)C(=O)OC1C2C(CC(C)C3C=CC(=O)C31C)OC(=O)C2C` (stereo not shown) [6-OAP, 6-O-angeloylplenolin], for which the IC50 is 3.5 to 9.2 µM in series [1]; 8.6 ± 0.5 µM in the series with U266; 3.5 ± 0.3 µM with RPMI 8226; 9.2 ± 2.1 µM in the series with MM.1R; 6.1 ± 0.4 µM with MM.1S. In addition, the antibacterial activity result in the series with Bacillus subtilis was “exhibit antibacterial activity”. The “effect on cytotoxicity of Dox, Dex, BOR” value with MM.1S cells was “significantly enhanced cytotoxicity”. The “cell growth (trypan blue exclusion)” value in series [2] is on record as “markedly inhibited cell growth”. Also, the Mad2-Cdc20 binding entry in the series on Mad2 bound Cdc20 is given as “enhanced the binding affinity”. The “ubiquitinated cyclin B1” value in [3] was “markedly decreased”.
